Experimental data taken from patent US20260092036A1, “CRYSTALLINE SALTS OF A T-TYPE CALCIUM CHANNEL MODULATOR AND METHODS OF USE THEREOF” (Praxis Precision Medicines, Inc., priority 2023, published 2026).

What was measured:
Format in all cases: physicochemical
[1] = Water solubility of crystalline forms measured by HPLC
Procedure: Water solubility of Pattern D was measured by HPLC to determine how much the water solubility drops between Pattern C and Pattern D. To measure the solubility of Pattern D in H2O, ˜150 mg of Pattern D was slurried for 2 weeks at RT in 1 mL of H2O.

[2] = Dynamic Vapor Sorption (DVS) on Pattern D
[3] = Solid form stability on heating (XRPD, hot stage microscopy); conditions: hydrochloride salt trihydrate
Procedure: Amorphous material was generated through ball milling in the experiments with the goal to obtain a new crystalline form. […] Pattern D was determined to be a channel trihydrate, the form identification was confirmed by Single Crystal XRD.
FIG. 5 is an overlay of XRPD spectra of Pattern D heated to 90° C. and cooled back to room temperature; Pattern D heated to 150° C. and cooled back to room temperature; as well as Pattern C and Pattern D reference spectra.
FIG. 6 is an image of Pattern D heated to different temperatures obtained using hot stage microscopy (HSM).

**Q.** Which “form conversion after slurry in H2O (XRPD)” value ([1]; 2-week slurry in H2O at RT) does the source give for `CC(C)(C)NC(=O)CN1CCC(CNC(=O)c2cc(F)cc(Cl)c2)CC1.Cl` [Pattern D, N-((1-(2-(tert-butylamino)-2-oxoethyl)piperidin-4-yl)methyl)-3-chloro-5-fluorobenzamide hydrochloride salt trihydrate] here?
**A.** no form conversion

**Q.** And the solubility at 2 weeks ([1]; water, thermodynamic from solid)?
**A.** 77.2 mg/mL

**Q.** What about the “mass gained in DVS” value ([2]; at 80% RH) of the same molecule?
**A.** ~10.45%

**Q.** And the “water re-adsorbed after desolvation in DVS” value ([2]; by RH of 20%, after loss of moisture at RH close to 0)?
**A.** approximately 10.5%

**Q.** What about the “form change post DVS (XRPD)” value ([2]; post DVS) of the same molecule?
**A.** no clear form change

**Q.** What about the “form conversion on heating (XRPD)” value ([3]; heated to 90° C. and cooled back to room temperature) of the same molecule?
**A.** no form conversion

**Q.** And the “form on further heating (XRPD)” value ([3]; heated to 150° C. and cooled back to room temperature)?
**A.** turns amorphous
